Converted amounts (≈) assume the structure as drawn.
Columns and labels:
[1] = tested on: S. aureus 6685; test: Antibacterial microplate agar assay (MIC); format: cell-based, Staphylococcus aureus; conditions: PYG agar, pH 6, 24 hours, 28° to 37° C.
Experimental: (§1) The antibacterial assay is a standard microplate agar assay using PYG agar, pH 6. PYG agar consists of the following ingredients:
(§2) The MIC is determined by standard methods. The inocula are overnight cultures of the test organisms, diluted so that the final population contains approximately 10^5 cells/ml. The agar plates are incubated at 28° to 37° C. for 24 hours. The lowest antibiotic concentration which allows no growth=MIC or minimum inhibitory concentration.
as §2, with “Assay. The antibacterial assay is a standard microplate agar assay using PYG agar, pH 6. The MIC” for “The MIC”

[2] = tested on: S. aureus 6690; test: Antibacterial microplate agar assay (MIC); format: cell-based, Staphylococcus aureus; conditions: PYG agar, pH 6, 24 hours, 28° to 37° C.
Experimental: as §1, §2
as §2, with “Assay. The antibacterial assay is a standard microplate agar assay using PYG agar, pH 6. The MIC” for “The MIC”

[3] = tested on: S. aureus UC 76; test: Antibacterial microplate agar assay (MIC); format: cell-based, Staphylococcus aureus; conditions: PYG agar, pH 6, 24 hours, 28° to 37° C.
Experimental: as §1, §2
as §2, with “Assay. The antibacterial assay is a standard microplate agar assay using PYG agar, pH 6. The MIC” for “The MIC”

[4] = tested on: S. faecalis 694; test: Antibacterial microplate agar assay (MIC); format: cell-based, Streptococcus faecalis; conditions: PYG agar, pH 6, 24 hours, 28° to 37° C.
Experimental: as §1, §2
as §2, with “Assay. The antibacterial assay is a standard microplate agar assay using PYG agar, pH 6. The MIC” for “The MIC”

[5] = tested on: Gram-positive bacteria; test: Antibacterial activity against Gram-positive bacteria; format: cell-based
Experimental: as §1, §2
as §2, with “Assay. The antibacterial assay is a standard microplate agar assay using PYG agar, pH 6. The MIC” for “The MIC”

[6] = tested on: S. flexneri 143; test: Antibacterial microplate agar assay (MIC); format: cell-based; conditions: PYG agar, pH 6, 24 hours, 28° to 37° C.
Experimental: as §1, §2
as §2, with “Assay. The antibacterial assay is a standard microplate agar assay using PYG agar, pH 6. The MIC” for “The MIC”

[7] = tested on: S. schottmuelleri 126; test: Antibacterial microplate agar assay (MIC); format: cell-based; conditions: PYG agar, pH 6, 24 hours, 28° to 37° C.
Experimental: as §1, §2
as §2, with “Assay. The antibacterial assay is a standard microplate agar assay using PYG agar, pH 6. The MIC” for “The MIC”

[8] = tested on: P. stuartii 6570; test: Antibacterial microplate agar assay (MIC); format: cell-based; conditions: PYG agar, pH 6, 24 hours, 28° to 37° C.
Experimental: as §1, §2
as §2, with “Assay. The antibacterial assay is a standard microplate agar assay using PYG agar, pH 6. The MIC” for “The MIC”

[9] = tested on: Ps. aeruginosa 95; test: Antibacterial microplate agar assay (MIC); format: cell-based; conditions: PYG agar, pH 6, 24 hours, 28° to 37° C.
Experimental: as §1, §2
as §2, with “Assay. The antibacterial assay is a standard microplate agar assay using PYG agar, pH 6. The MIC” for “The MIC”

[10] = tested on: E. coli 45; test: Antibacterial microplate agar assay (MIC); format: cell-based; conditions: PYG agar, pH 6, 24 hours, 28° to 37° C.
Experimental: as §1, §2
as §2, with “Assay. The antibacterial assay is a standard microplate agar assay using PYG agar, pH 6. The MIC” for “The MIC”

[11] = tested on: K. pneumoniae 58; test: Antibacterial microplate agar assay (MIC); format: cell-based; conditions: PYG agar, pH 6, 24 hours, 28° to 37° C.
Experimental: as §1, §2
as §2, with “Assay. The antibacterial assay is a standard microplate agar assay using PYG agar, pH 6. The MIC” for “The MIC”

[12] = tested on: S. marcescens 131; test: Antibacterial microplate agar assay (MIC); format: cell-based; conditions: PYG agar, pH 6, 24 hours, 28° to 37° C.
Experimental: as §1, §2
as §2, with “Assay. The antibacterial assay is a standard microplate agar assay using PYG agar, pH 6. The MIC” for “The MIC”

[13] = tested on: Enterococcus sp. 701; test: Antibacterial microplate agar assay (MIC); format: cell-based; conditions: PYG agar, pH 6, 24 hours, 28° to 37° C.
Experimental: as §1, §2
as §2, with “Assay. The antibacterial assay is a standard microplate agar assay using PYG agar, pH 6. The MIC” for “The MIC”

[14] = tested on: E. cloacae 6783; test: Antibacterial microplate agar assay (MIC); format: cell-based; conditions: PYG agar, pH 6, 24 hours, 28° to 37° C.
Experimental: as §1, §2
as §2, with “Assay. The antibacterial assay is a standard microplate agar assay using PYG agar, pH 6. The MIC” for “The MIC”

[15] = tested on: L-1210; test: Antitumor (in vitro) activity; format: cell-based; conditions: L-1210, in vitro
[16] = 60% aq. ethanol

## C/C=C(\N=C=S)C(=O)O[C@H]1[C@@H](O[C@H]2C[C@H](OC)[C@@](O)([C@H](C)OC(=O)C(C)C)[C@H](C)O2)[C@@H](O)[C@H]([C@@]2(O)CC(=O)C(=N)C(C(=O)O)=C2O)O[C@@H]1COC(C)=O [Paulomycin B]
[1]
  Minimum Inhibitory Concentration: 0.50 µg/mL
[2]
  Minimum Inhibitory Concentration: 2.0 µg/mL
[3]
  Minimum Inhibitory Concentration: 0.50 µg/mL
[4]
  Minimum Inhibitory Concentration: 125 µg/mL
[5]; for example Bacillus subtilis, Staphylococcus aureus, Streptococcus pyogenes and Streptococcus faecalis
  adversely affecting the growth of Gram-positive bacteria: adversely affecting the growth of Gram-positive bacteria
[5]; in words
  activity against various Gram-positive bacteria: active against various Gram-positive bacteria
[6]
  Minimum Inhibitory Concentration: 250 µg/mL
[7]
  Minimum Inhibitory Concentration: 500 µg/mL
[8]
  Minimum Inhibitory Concentration: 250 µg/mL
[9]
  Minimum Inhibitory Concentration: 250 µg/mL
[10]
  Minimum Inhibitory Concentration: 250 µg/mL
[11]
  Minimum Inhibitory Concentration: 250 µg/mL
[12]
  Minimum Inhibitory Concentration: 250 µg/mL
[13]
  Minimum Inhibitory Concentration: 31.2 µg/mL
[14]
  Minimum Inhibitory Concentration: 500 µg/mL
[15]
  ID50: 8.6 mg/L (≈ 11.1 µM)
  ID90: 21 mg/L (≈ 27.2 µM)
[16]
  pKa: 7.4
